Data taken from patent US11807625B2, “Capsid inhibitors for the prevention of HIV” (Gilead Sciences, Inc., priority 2019, dated 2023).

Experiment: PK of compound of Formula (Ia) after single subcutaneous dose of solution formulations in beagle dogs
Type: in vivo
Settings: male, beagle, dog, plasma, sc, 12 mg/kg, beagle dogs, SC 12 mg/kg
Procedure: Formulations containing the compound of Formula (Ia), or a pharmaceutically acceptable salt thereof, were prepared as solutions and optionally administered subcutaneously or intramuscularly to rats, rabbits, and/or dogs.
A solution of about 400 mg/mL of the compound of Formula (Ia) having 17.00 w/w % water, 36.40 w/w % PEG 300, 35.20 w/w % of a sodium salt of a compound of Formula (Ia), 5.00 w/w % ethanol, and 6.40 w/w % poloxamer 188 was prepared. The solution was administered subcutaneously to male beagle dogs at a dose level of about 12 mg/kg and male Wistar Han rats at a dose level of about 50 mg/kg. The pharmacokinetic profiles were determined, and the results for dogs are summarized in Table and Table, while the results for rats are summarized in Table and Table below.
A solution of about 500 mg/mL of the compound of Formula (Ia) having 14.06 w/w % water, 30.12 w/w % PEG 300, […] of a sodium salt of a compound of Formula (Ia), 5.00 w/w % ethanol, and 6.40 w/w % poloxamer 188 was prepared. The solution was administered subcutaneously to male beagle dogs at a dose level of about 12 mg/kg and male Wistar Han rats at a dose level of about 50 mg/kg. The pharmacokinetic profiles were determined, and the results for dogs are summarized in Table and Table, while the results for rats are summarized in Table and Table below.
A solution of about 300 mg/mL of the compound of Formula (Ia) having 23.33 w/w % water, 48.99 w/w % PEG 300, 26.47 w/w % of a sodium salt of a compound of Formula (Ia), and 1.21 w/w % poloxamer 188 was prepared. The solution was administered subcutaneously to male beagle dogs at a dose level of about 6 mg/kg and male Wistar Han rats at a dose level of about 50 mg/kg. The pharmacokinetic profiles were determined, and the results for dogs are summarized in Table and Table, while the results for rats are summarized in Table and Table below.
A solution of about 400 mg/mL of the compound of Formula (Ia) having 18.80 w/w % water, 40.25 w/w % PEG 300, 34.38 w/w % of a sodium salt of a compound of Formula (Ia), 5.00 w/w % ethanol, and 1.57 w/w % poloxamer 188 was prepared. The solution was administered subcutaneously to male beagle dogs at a dose level of about 12 mg/kg and male Wistar Han rats at a dose level of about 50 mg/kg. The pharmacokinetic profiles were determined, and the results for dogs are summarized in Table and Table, while the results for rats are summarized in Table and Table below.
A solution of about 500 mg/mL of the compound of Formula (Ia) having 16.29 w/w % water, 34.88 w/w % PEG 300, 41.92 w/w % of a sodium salt of a compound of Formula (Ia), 5.00 w/w % ethanol, and 1.91 w/w % poloxamer 188 was prepared. The solution was administered subcutaneously to male beagle dogs at a dose level of about 12 mg/kg and male Wistar Han rats at a dose level of about 50 mg/kg. The pharmacokinetic profiles were determined, and the results for dogs are summarized in Table and Table, while the results for rats are summarized in Table and Table below.
A solution of about 400 mg/mL of the compound of Formula (Ia) having 20.90 w/w % water, 44.72 w/w % PEG 300, and 34.38 w/w % of a sodium salt of a compound of Formula (Ia) was prepared. The solution was administered subcutaneously to male beagle dogs at a dose level of about 12 mg/kg and male Wistar Han rats at a dose level of about 50 mg/kg. The pharmacokinetic profiles were determined, and the results for dogs are summarized in Table and Table, while the results for rats are summarized in Table and Table below.
A solution of about 400 mg/mL of the compound of Formula (Ia) having 19.90 w/w % water, 42.59 w/w % PEG 300, 34.38 w/w % of a sodium salt of a compound of Formula (Ia), and 3.13 w/w % poloxamer 188 was prepared. The solution was administered subcutaneously to male beagle dogs at a dose level of about 12 mg/kg and male Wistar Han rats at a dose level of about 50 mg/kg. […]

[1] = 400 mg/mL solution W (5.00% ethanol, 1.57% poloxamer 188), Mean n = 3
[2] = 400 mg/mL solution W (5.00% ethanol, 1.57% poloxamer 188), animals #1-#3
[3] = 400 mg/mL solution Y (water, PEG 300), Mean n = 3
[4] = 400 mg/mL solution Y (water, PEG 300), animals #1-#3
[5] = 400 mg/mL solution Z (3.13% poloxamer 188), animals #1-#3
[6] = 400 mg/mL solution Z (3.13% poloxamer 188), Mean n = 3
[7] = 500 mg/mL solution X (5.00% ethanol, 1.91% poloxamer 188), Mean n = 3
[8] = 500 mg/mL solution X (5.00% ethanol, 1.91% poloxamer 188), animals #1-#3

Compound: CC(C)(C#Cc1ccc(-c2ccc(Cl)c3c(NS(C)(=O)=O)nn(CC(F)(F)F)c23)c([C@H](Cc2cc(F)cc(F)c2)NC(=O)Cn2nc(C(F)(F)F)c3c2C(F)(F)[C@@H]2C[C@H]32)n1)S(C)(=O)=O [compound of Formula (Ia)]
- concentration at 96 h [1]: 43.5 nM
- concentration at 168 h [1]: 40.3 nM
- concentration at 336 h [1]: 133 nM
- concentration at 504 h [1]: 121 nM
- concentration at 672 h [1]: 145 nM
- concentration at 840 h [1]: 82.4 nM
- concentration at 1008 h [1]: 71.7 nM
- concentration at 1008 h [2]: 80.7 nM
- concentration at 1344 h [1]: 80.7 nM
- concentration at 1344 h [2]: 72.3 nM
- concentration at 1680 h [1]: 34.9 nM
- concentration at 1680 h [2]: 28.8 nM
- concentration at 2016 h [1]: 35.3 nM
- concentration at 2016 h [2]: 25.8 nM
- concentration at 2352 h [1]: 21.9 nM
- concentration at 2352 h [2]: 16.8 nM
- concentration at 2688 h [1]: 13.3 nM
- concentration at 2688 h [2]: 9.87 nM
- concentration at 3024 h [1]: 11.4 nM
- concentration at 3024 h [2]: 10.5 nM
- concentration at 3360 h [1]: 7.4 nM
- concentration at 3360 h [2]: 6.7 nM
- concentration at 3696 h [1]: 4.7 nM
- concentration at 4032 h (400 mg/mL solution W (5.00% ethanol, 1.57% poloxamer 188), 4032 h, Mean n = 3): 5.6 nM
- concentration at 4368 h (400 mg/mL solution W (5.00% ethanol, 1.57% poloxamer 188), 4368 h, Mean n = 3): 5.7 nM
- concentration at 1 h [3]: 9.61 nM
- concentration at 3 h [3]: 17.9 nM
- concentration at 8 h [3]: 33.9 nM
- concentration at 24 h [3]: 69.9 nM
- concentration at 48 h [3]: 77.1 nM
- concentration at 72 h [3]: 58.5 nM
- concentration at 72 h [4]: 73.6 nM
- concentration at 96 h [3]: 58.4 nM
- concentration at 96 h [4]: 73.8 nM
- concentration at 168 h [3]: 47.8 nM
- concentration at 168 h [4]: 41.2 nM
- concentration at 336 h [3]: 164 nM
- concentration at 336 h [4]: 163 nM
- concentration at 504 h [3]: 248 nM
- concentration at 504 h [4]: 247 nM
- concentration at 672 h [3]: 205 nM
- concentration at 672 h [4]: 229 nM
- concentration at 840 h [3]: 123 nM
- concentration at 840 h [4]: 136 nM
- concentration at 1008 h [3]: 95.8 nM
- concentration at 1008 h [4]: 119 nM
- concentration at 1334 h [3]: 58.2 nM
- concentration at 1334 h [4]: 70.5 nM
- concentration at 1680 h [3]: 28.4 nM
- concentration at 1680 h [4]: 27.2 nM
- concentration at 2016 h [3]: 18.6 nM
- concentration at 2016 h [4]: 17.7 nM
- concentration at 2352 h [3]: 15.4 nM
- concentration at 2352 h [4]: 18.1 nM
- concentration at 2688 h [3]: 9.47 nM
- concentration at 2688 h [4]: 8.23 nM
- concentration at 3024 h [3]: 6.15 nM
- concentration at 3024 h [4]: 5.55 nM
- concentration at 3360 h [3]: 5.11 nM
- concentration at 3696 h [3]: 3.76 nM
- concentration at 1 h (400 mg/mL solution Z (3.13% poloxamer 188), Mean): 1.58 nM
- concentration at 1 h [5]: 1.66 nM
- concentration at 3 h [6]: 5.83 nM
- concentration at 8 h [6]: 34 nM
- concentration at 24 h [6]: 80.5 nM
- concentration at 48 h [6]: 61.6 nM
- concentration at 72 h [6]: 65.1 nM
- concentration at 72 h [5]: 89.8 nM
- concentration at 96 h [6]: 70.6 nM
- concentration at 168 h [6]: 60.6 nM
- concentration at 336 h [6]: 172 nM
- concentration at 504 h [6]: 228 nM
- concentration at 504 h [5]: 301 nM
- concentration at 672 h [6]: 117 nM
- concentration at 672 h [5]: 144 nM
- concentration at 840 h [6]: 95.7 nM
- concentration at 840 h [5]: 107 nM
- concentration at 1008 h [6]: 79.9 nM
- concentration at 1008 h [5]: 93.3 nM
- concentration at 1334 h [6]: 50.2 nM
- concentration at 1334 h [5]: 51.6 nM
- concentration at 1680 h [6]: 24.2 nM
- concentration at 2016 h [6]: 15.2 nM
- concentration at 2352 h [6]: 8.85 nM
- concentration at 2688 h [6]: 6.06 nM
- concentration at 3024 h [6]: 5.61 nM
- concentration at 3024 h [5]: 3.65 nM
- concentration at 3360 h [6]: 3.41 nM
- concentration at 3696 h [6]: 1.75 nM
- concentration at 1 h [7]: 12.1 nM
- concentration at 3 h [7]: 15.2 nM
- concentration at 3 h [8]: 19.4 nM
- concentration at 8 h [7]: 26.1 nM
- concentration at 8 h [8]: 22.3 nM
